The values that follow come from USRE39723E1, “Semi-synthetic taxanes with antitumor and antiangiogenetic activities” (Indena S.p.A., priority 2000, dated 2007).

The test system of series [1] is angiogenesis induced by FGF-2 adsorbed on a Matrigel pellet. Nature of the series: Matrigel test, in vivo antiangiogenetic activity (hemoglobin content in pellets). Details: species or system C57BL6N mice. Particulars: after 7 days. The procedure:
The antiangiogenic activity was evaluated by means of the Matrigel test, in which angiogenesis is induced by FGF-2 ([…]) adsorbed on a Matrigel pellet (12.5 mg/ml, 0.5 mL) injected subcutaneously in C57BL6N mice.
The tested compound was administered through the oral route daily or through the intraperitoneal route on alternate days, at the shown concentration. After 7 days, the angiogenic response was evaluated by measuring the hemoglobin content in the pellets, according to the procedure by Drabkin.

As to “FGF-2: growth factor adsorbed on the Matrigel pellet to induce angiogenesis [reference compound]”, the Hemoglobin in series [1] (FGF-2 alone (150 mg/pellet) on Matrigel pellet, no test compound) came out at 0.03 ± 0.001 g/dL. In series [1] (FGF-2 alone versus control), the “% (change of hemoglobin content)” value was “+300%”.

For the compound `CC(=O)O[C@H]1C(=O)[C@@]2(C)[C@H]([C@H](OC(=O)c3ccccc3)[C@]3(O)C[C@H](OC(=O)[C@H](O)[C@@H](NC(=O)c4ccccc4)c4ccccc4)C(C)=C1C3(C)C)[C@]1(OC(C)=O)CO[C@@H]1C[C@@H]2O` [Paclitaxel], for the setting “mouse, in vivo”, the “neuro-toxicity (tremors)” value is listed as “induces tremors”. Moreover, the weight loss result (nude mouse with human tumor cells, dose effective in inhibiting tumor growth (same antitumor activity)) is “up to 20%”.

In the case of “13-[(2R, 3S)-3-isobutyl-2-hydroxy-3-tert-butoxycarbonylamino-propanoyl]-C-seco-10-dehydro-10-deacetyl-7,9-bis-acetyl-baccatine III 1,14-carbonate [Example VII]”, the figures for the “% (change of hemoglobin content)” value in series [1] (50 mg/kg i.p. on alternate days) and in series [1] (100 mg/kg p.o. daily) were −40% and −70%, respectively. The Hemoglobin in series [1] (50 mg/kg i.p. on alternate days, FGF-2 Matrigel pellet s.c.) is 0.014 g/dL; in series [1] (100 mg/kg p.o. daily, FGF-2 Matrigel pellet s.c.), 0.009 g/dL.

Take “13-[(2R, 3S)-3-iso-butyl-2-hydroxy-3-tert-butoxycarbonylamino-propanoyl]-C-seco-10-dehydro-10-deacetyl-7,9-bis-acetyl-baccatine III [Example II]”: the figures for the “% (change of hemoglobin content)” value in series [1] (90 mg/kg i.p. on alternate days) and in series [1] (150 mg/kg p.o. daily) were −50% and −70%, respectively. The Hemoglobin in series [1] (90 mg/kg i.p. on alternate days, FGF-2 Matrigel pellet s.c.) turned out to be 0.015 ± 0.001 g/dL; in series [1] (150 mg/kg p.o. daily, FGF-2 Matrigel pellet s.c.), 0.009 ± 0.001 g/dL.
